Test results: patent publication US6756359B2, “C12 modified erythromycin macrolides and ketolides having antibacterial activity” (Chiron Corporation, priority 2001, dated 2004)
Values after ≈ are worked out from the molar mass of the structure shown.

What was measured:
Assay in all cases: Antibacterial activity in vitro, MIC by broth microdilution
H. influenzae Hain_49247 = type: cell-based, Haemophilus influenzae; conditions: Table 5, Strain ID M: H. influenzae Hain_49247; unit assumed
Description: (§1) Representative compounds of the present invention were assayed in vitro for antibacterial activity against the bacterial isolates listed in Table 1 as follows:
(§2) The bacterial isolates listed in Table 1 were cultivated from −70° C. frozen stocks by two consecutive overnight passages (P1, P2) at 35° C. on 5% blood agar (Remel, Lenexa, Kans.). Chocolate agar (Remel) is used for Haemophilus influenzae. H. influenzae and Streptococcus pneumoniae are incubated in 5-10% CO2.
(§3) To determine the amount of solvent to be used to give the desired final concentration, the formula “weight obtained in mg/final concentration in mg/mL” will be used. It will give the amount of solvent in mL needed to be added to give the desired concentration. For example, if 2.5 mg/mL is the desired concentration and the weight of compound is 13.7 mg, then the amount of solvent to be added is 3.94 mL (13.7 mg/2.5 mg/mL=3.94 mLs). Methanol is used as the solvent to dissolve the test compounds. Further dilution of stock is done in sterile, deioinzed water. Drug stocks are kept frozen at −70° C., protected from light.
(§4) MICs are determined by the broth microdilution method in accordance with the NCCLS guidelines. In brief, organism suspensions are adjusted to a 0.5 McFarland standard to yield a final inoculum between 3×10^5 and 7×10^5 CFU/mL. Drug dilutions and inocula are made in sterile, cation adjusted Mueller-Hinton Broth (CAMHB) (Remel) for all but S. pneumoniae [CAMHB with 2-5% lysed horse blood (Remel)] and H. influenzae [Haemophilus Test Medium (Remel)]. An inoculum volume of 100 μl is added to wells containing 100 μl of broth with 2-fold serial dilutions of drug. All inoculated microdilution trays are incubated in ambient air at 35° C. for 18-24 hours, except for S. pneumoniae, and H. influenzae (both at 5-10% CO2).
(§5) Following appropriate incubation, the MIC is determined and the MIC is defined as the lowest concentration of the drug that prevented visible growth.

S. pneumoniae Stpn_49619 = type: cell-based, Streptococcus pneumoniae; conditions: Table 5, Strain ID F: S. pneumoniae Stpn_49619
Description: as §1, §2, §3, §4, §5

[1] = tested on: S. pneumoniae Stpn_Erm S 4297; type: cell-based, Streptococcus pneumoniae; conditions: Table 5, Strain ID J: S. pneumoniae Stpn_Erm S 4297
Description: as §1, §2, §3, §4, §5

[2] = tested on: S. pneumoniae Stpn_280-962 Pen S; type: cell-based, Streptococcus pneumoniae; conditions: Table 5, Strain ID H: S. pneumoniae Stpn_280-962
Description: as §1, §2, §3, §4, §5

[3] = tested on: S. pneumoniae Stpn_297-749 Pen R; type: cell-based, Streptococcus pneumoniae; conditions: Table 5, Strain ID G: S. pneumoniae Stpn_297-749
Description: as §1, §2, §3, §4, §5

[4] = tested on: S. pneumoniae Stpn_Mef S 3427; type: cell-based, Streptococcus pneumoniae; conditions: Table 5, Strain ID L: S. pneumoniae Stpn_Mef S 3427
Description: as §1, §2, §3, §4, §5

[5] = tested on: S. pneumoniae Stpn_Mef 5654; type: cell-based, Streptococcus pneumoniae; conditions: Table 5, Strain ID K: S. pneumoniae Stpn_Mef 5654; unit assumed
Description: as §1, §2, §3, §4, §5

[6] = tested on: S. pneumoniae Stpn_Erm 6849; type: cell-based, Streptococcus pneumoniae; conditions: Table 5, Strain ID I: S. pneumoniae Stpn_Erm 6849
Description: as §1, §2, §3, §4, §5

[7] = tested on: S. epidermidis Step_f50654 Pen S; type: cell-based; conditions: Table 5, Strain ID C: S. epidermidis Step_f50654; unit assumed
Description: as §1, §2, §3, §4, §5

S. pyogenes Stpy_8668 = type: cell-based; conditions: Table 5, Strain ID E: S. pyogenes Stpy_8668
Description: as §1, §2, §3, §4, §5

S. aureus Stau_29213 = type: cell-based; conditions: Table 5, Strain ID A: S. aureus Stau_29213; unit assumed
Description: as §1, §2, §3, §4, §5

[8] = tested on: S. epidermidis Step_14990; type: cell-based; conditions: Table 5, Strain ID B: S. epidermidis Step_14990; unit assumed
Description: as §1, §2, §3, §4, §5

E. faecalis Enfa_29212 = type: cell-based; conditions: Table 5, Strain ID D: E. faecalis Enfa_29212; unit assumed
Description: as §1, §2, §3, §4, §5

SMILES | MIC (H. influenzae Hain_49247) | MIC (S. pneumoniae Stpn_49619) | MIC ([1]; unit assumed) | MIC [2] | MIC [3] | MIC ([4]; unit assumed) | MIC [5] | MIC ([6]; unit assumed) | MIC [7] | MIC (S. pyogenes Stpy_8668; unit assumed) | MIC (S. aureus Stau_29213) | MIC [8] | MIC (E. faecalis Enfa_29212) | MIC [1] | MIC [6] | MIC [4] | MIC (S. pyogenes Stpy_8668)
C/C=C/[C@]12OC(=O)N(CCCCn3cnc(-c4cccnc4)c3)[C@@H]1[C@@H](C)C(=O)[C@H](C)C[C@](C)(OC)[C@H](O[C@@H]1O[C@H](C)C[C@H](N(C)C)[C@H]1O)[C@@H](C)C(=O)[C@@H](C)C(=O)O[C@@H]2CC [65(2), (3aS,4R,7R,9R,10R,11S,13R,15R,15aR)-4-ethyl-11-methoxy-7,9,11,13,15-pentamethyl-2,6,8,14-tetraoxo-3a-[(1E)-prop-1-enyl]-1-[4-(4-pyridin-3-yl-1H-imidazol-1-yl)butyl]tetradecahydro-2H-oxacyclotetradecino[4,3-d][1,3]oxazol-10-yl 3,4,6-trideoxy-3-(dimethylamino)-D-xylo-hexopyranoside] | 25 µg/mL (≈ 29.8 µM) | ≦0.05 | 0.4 µg/mL (≈ 0.477 µM) | ≦0.05 | ≦0.05 | 0.2 µg/mL (≈ 0.239 µM) | 0.78 µg/mL (≈ 0.931 µM) | 0.78 µg/mL (≈ 0.931 µM) | 3.13 µg/mL (≈ 3.73 µM) | 0.2 µg/mL (≈ 0.239 µM) | 3.13 µg/mL (≈ 3.73 µM) | 3.13 µg/mL (≈ 3.73 µM) | 0.78 µg/mL (≈ 0.931 µM) |  |  |  | 
CC[C@H]1OC(=O)[C@H](C)C(=O)[C@H](C)[C@@H](OC2O[C@H](C)C[C@H](N(C)C)[C@H]2O)[C@@](C)(OC)C[C@@H](C)C(=O)[C@H](C)[C@H]2N(CCCCn3cnc4cccnc43)C(=O)O[C@]12CC (stereo partly drawn) [Example 14, (3aS,4R,7R,9R,10R,11S,13R,15R,15aR)-3a,4-diethyl-1-[4-(3H-imidazo[4,5-b]pyridin-3-yl)butyl]-11-methoxy-7,9,11,13,15-pentamethyl-2,6,8,14-tetraoxotetradecahydro-2H-oxacyclotetradecino[4,3-d][1,3]oxazol-10-yl 3,4,6-trideoxy-3-(dimethylamino)-D-xylo-hexopyranoside] | 3.13 µg/mL (≈ 3.91 µM) | ≦0.05 | 0.1 µg/mL (≈ 0.125 µM) | ≦0.05 | ≦0.05 |  | 0.4 µg/mL (≈ 0.5 µM) | 0.4 µg/mL (≈ 0.5 µM) | 0.2 µg/mL (≈ 0.25 µM) |  | 0.4 µg/mL (≈ 0.5 µM) | 0.2 µg/mL (≈ 0.25 µM) | 0.1 µg/mL (≈ 0.125 µM) |  |  | ≦0.05 | ≦0.05
CC[C@H]1OC(=O)[C@H](C)C(=O)[C@H](C)[C@@H](OC2O[C@H](C)C[C@H](N(C)C)[C@H]2O)[C@@](C)(OC)C[C@@H](C)C(=O)[C@H](C)[C@H]2N(CCCCc3ccnc4ccccc34)C(=O)O[C@]12CC (stereo partly drawn) [Example 15, (3aS,4R,7R,9R,10R,11S,13R,15R,15aR)-3a,4-diethyl-11-methoxy-7,9,11,13,15-pentamethyl-2,6,8,14-tetraoxo-1-(4-quinolin-4-ylbutyl)tetradecahydro-2H-oxacyclotetradecino[4,3-d][1,3]oxazol-10-yl 3,4,6-trideoxy-3-(dimethylamino)-D-xylo-hexopyranoside] | 3.13 µg/mL (≈ 3.86 µM) | ≦0.05 | 0.1 µg/mL (≈ 0.123 µM) | ≦0.05 | ≦0.05 |  | 0.2 µg/mL (≈ 0.247 µM) | 1.56 µg/mL (≈ 1.93 µM) | 0.4 µg/mL (≈ 0.494 µM) |  | 0.4 µg/mL (≈ 0.494 µM) | 0.2 µg/mL (≈ 0.247 µM) | 0.1 µg/mL (≈ 0.123 µM) |  |  | ≦0.05 | ≦0.05

Second part, led by results:

MIC (H. influenzae Hain_49247) | MIC (S. pneumoniae Stpn_49619) | MIC ([1]; unit assumed) | MIC [2] | MIC [3] | MIC ([4]; unit assumed) | MIC [5] | MIC ([6]; unit assumed) | MIC [7] | MIC (S. pyogenes Stpy_8668; unit assumed) | MIC (S. aureus Stau_29213) | MIC [8] | MIC (E. faecalis Enfa_29212) | MIC [1] | MIC [6] | SMILES | MIC [4] | MIC (S. pyogenes Stpy_8668)
3.13 µg/mL (≈ 3.78 µM) | ≦0.05 | 0.2 µg/mL (≈ 0.242 µM) | ≦0.05 | ≦0.05 | 0.1 µg/mL (≈ 0.121 µM) | 0.4 µg/mL (≈ 0.483 µM) | 0.78 µg/mL (≈ 0.942 µM) | 0.4 µg/mL (≈ 0.483 µM) | 0.1 µg/mL (≈ 0.121 µM) | 0.4 µg/mL (≈ 0.483 µM) | 0.4 µg/mL (≈ 0.483 µM) | 0.2 µg/mL (≈ 0.242 µM) |  |  | CC[C@H]1OC(=O)[C@@](C)(F)C(=O)[C@H](C)[C@@H](OC2O[C@H](C)C[C@H](N(C)C)[C@H]2O)[C@@](C)(OC)C[C@@H](C)C(=O)[C@H](C)[C@H]2N(CCCCc3ccnc4ccccc34)C(=O)O[C@]12CC (stereo partly drawn) [Example 17, (3aS,4R,7S,9R,10R,11S,13R,15R,15aR)-3a,4-diethyl-7-fluoro-11-methoxy-7,9,11,13,15-pentamethyl-2,6,8,14-tetraoxo-1-(4-quinolin-4-ylbutyl)tetradecahydro-2H-oxacyclotetradecino[4,3-d][1,3]oxazol-10-yl 3,4,6-trideoxy-3-(dimethylamino)-D-xylo-hexopyranoside] |  | 
3.13 µg/mL (≈ 3.86 µM) | ≦0.05 | 0.2 µg/mL (≈ 0.247 µM) | ≦0.05 | ≦0.05 |  | 0.4 µg/mL (≈ 0.494 µM) | 3.13 µg/mL (≈ 3.86 µM) | 0.78 µg/mL (≈ 0.963 µM) | 0.1 µg/mL (≈ 0.123 µM) | 0.78 µg/mL (≈ 0.963 µM) | 0.4 µg/mL (≈ 0.494 µM) | 0.1 µg/mL (≈ 0.123 µM) |  |  | CC[C@H]1OC(=O)[C@H](C)C(=O)[C@H](C)[C@@H](OC2O[C@H](C)C[C@H](N(C)C)[C@H]2O)[C@@](C)(OC)C[C@@H](C)C(=O)[C@H](C)[C@H]2N(CCCCc3ccc4ccccc4n3)C(=O)O[C@]12CC (stereo partly drawn) [Example 18, (3aS,4R,7R,9R,10R,11S,13R,15R,15aR)-3a,4-diethyl-11-methoxy-7,9,11,13,15-pentamethyl-2,6,8,14-tetraoxo-1-(4-quinolin-2-ylbutyl)tetradecahydro-2H-oxacyclotetradecino[4,3-d][1,3]oxazol-10-yl 3,4,6-trideoxy-3-(dimethylamino)-D-xylo-hexopyranoside] | ≦0.05 | 
6.25 µg/mL (≈ 7.55 µM) | ≦0.05 | 0.2 µg/mL (≈ 0.242 µM) | ≦0.05 | ≦0.05 | 0.1 µg/mL (≈ 0.121 µM) | 0.4 µg/mL (≈ 0.483 µM) | 0.78 µg/mL (≈ 0.942 µM) | 0.4 µg/mL (≈ 0.483 µM) | 0.1 µg/mL (≈ 0.121 µM) | 0.4 µg/mL (≈ 0.483 µM) | 0.4 µg/mL (≈ 0.483 µM) | 0.4 µg/mL (≈ 0.483 µM) |  |  | CC[C@H]1OC(=O)[C@@](C)(F)C(=O)[C@H](C)[C@@H](OC2O[C@H](C)C[C@H](N(C)C)[C@H]2O)[C@@](C)(OC)C[C@@H](C)C(=O)[C@H](C)[C@H]2N(CCCCc3ccc4ccccc4n3)C(=O)O[C@]12CC (stereo partly drawn) [Example 19, (3aS,4R,7S,9R,10R,11S,13R,15R,15aR)-3a,4-diethyl-7-fluoro-11-methoxy-7,9,11,13,15-pentamethyl-2,6,8,14-tetraoxo-1-(4-quinolin-2-ylbutyl)tetradecahydro-2H-oxacyclotetradecino[4,3-d][1,3]oxazol-10-yl 3,4,6-trideoxy-3-(dimethylamino)-D-xylo-hexopyranoside] |  | 
6.25 µg/mL (≈ 7.44 µM) | ≦0.05 |  | ≦0.05 | ≦0.05 |  | 0.4 µg/mL (≈ 0.476 µM) |  | 0.2 µg/mL (≈ 0.238 µM) |  | 0.2 µg/mL (≈ 0.238 µM) | 0.1 µg/mL (≈ 0.119 µM) | 0.1 µg/mL (≈ 0.119 µM) | ≦0.05 | ≦0.5 | CC[C@H]1OC(=O)[C@H](C)C(=O)[C@H](C)[C@@H](OC2O[C@H](C)C[C@H](N(C)C)[C@H]2O)[C@@](C)(OC)C[C@@H](C)C(=O)[C@H](C)[C@H]2N(CCCCn3cc(-c4cccnc4)nc3C)C(=O)O[C@]12CC (stereo partly drawn) [Example 20, (3aS,4R,7R,9R,10R,11S,13R,15R,15aR)-3a,4-diethyl-11-methoxy-7,9,11,13,15-pentamethyl-1-[4-(2-methyl-4-pyridin-3-yl-1H-imidazol-1-yl)butyl]-2,6,8,14-tetraoxotetradecahydro-2H-oxacyclotetradecino[4,3-d][1,3]oxazol-10-yl 3,4,6-trideoxy-3-(dimethylamino)-D-xylo-hexopyranoside] | ≦0.05 | ≦0.05
